The record followed here is article PMC12473165, “Theranostic Potential of a New ^64Cu-Labeled NOTA-R954 Peptide Conjugate for Kinin B1R Expressing Prostate Cancer” (Pharmaceutics, 2025).

Values joined by “and” are separate entries in the source; they are usually repeats but may differ in a detail not shown here. Equal entries are not always repeated. Square brackets hold non-standard residues; d marks the D form. Peptide text beside a SMILES is read from it. * marks the point of attachment. NOTA = O=C(O)CN1CCN(CC(=O)O)CCN(CC(=O)*)CC1; Oic = O=C(O)[C@@H]1C[C@@H]2CCCC[C@@H]2N1; d2Nal = N[C@H](Cc1ccc2ccccc2c1)C(=O)O; αMeF = C[C@](N)(Cc1ccccc1)C(=O)O; Orn = NCCC[C@H](N)C(=O)O; βAla = NCCC(=O)O

The target in data set [1] is T1, hB1R (Homo sapiens, UniProt P46663).
T1 sequence (P46663 1-353): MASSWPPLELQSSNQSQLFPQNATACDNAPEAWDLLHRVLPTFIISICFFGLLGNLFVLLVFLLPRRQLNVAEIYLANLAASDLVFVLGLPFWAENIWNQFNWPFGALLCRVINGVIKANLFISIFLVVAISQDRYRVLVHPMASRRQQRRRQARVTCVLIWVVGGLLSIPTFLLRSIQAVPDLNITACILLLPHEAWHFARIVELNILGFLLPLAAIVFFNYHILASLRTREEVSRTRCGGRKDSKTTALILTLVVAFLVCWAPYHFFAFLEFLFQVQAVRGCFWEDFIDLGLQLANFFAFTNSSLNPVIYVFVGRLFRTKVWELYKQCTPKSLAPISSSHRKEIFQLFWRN
Kind of data set: Radioligand competition binding on HEK293 cells stably expressing hB1R. Set-up: expressed in transfected cells; host or cells: QBI-HEK293A (lentiviral transduction, puromycin selection). As to conditions: hB1R-stably expressing HEK293 cells, means of two independent experiments. (Loss of bound radioactivity is the signal in a displacement assay; it reports binding, not function.)

The target in data set [2] is T1, hB1R. Kind of data set: NFAT-eGFP reporter assay in CHO-hB1R-NFAT-eGFP cells. The data set is classed as cell-based. Set-up: expressed in transfected cells; host or cells: CHO (hB1R-expressing line, then transduced with NFAT-eGFP reporter). The note with it: means of two independent experiments; for IC50: hB1R-stably expressing CHO-NFAT cells, antagonist potency, read-out: CHO-NFAT IC50 (Table S1); for EC50: hB1R-stably expressing CHO-NFAT-eGFP cells, agonist potency, 16 h stimulation, read-out: CHO-NFAT EC50 (Table S2). The text has this:
The pLenti-6V5-NFAT-eGFP vector was generated from the pSIRV-NFAT-eGFP vector (a gift from Peter Steinberger, Addgene plasmid #118031). Briefly, NFAT-eGFP gene was PCR amplified using the following primers: 5′-[…]-3′ and 5′-[…]-3′). The amplified gene was then ligated into the ClaI and AgeI restriction sites of the pLenti-6V5 vector. Lentiviruses were produced using the pLenti-6V5-NFAT-eGFP vector in HEK293T cells and used to transduce a hB1R-expressing CHO cell line, followed by selection with 10 µg/mL blasticidin. […] Clones were grown in 4000 nanowells/well in 24-well plates and re-plated into 96-well plates after initial expansion via the ALS CellCelector™ (Sartorius Corporation, Bohemia, NY, USA). After clonal expansion, individual cell lines were evaluated based on their ratio of stimulated fluorescence to basal expression to determine maximum sensitivity.
Fluorescence assays performed on CHO-hB1R-NFAT-eGFP cells. Target cells were plated at 10,000 cells/well in a 96-well microplate (opaque black wells with clear flat bottom, Thermo Scientific, Rockford, IL, USA) using RPMI 1640 medium with 10% fetal bovine serum (FBS). After 24 h, the medium was replaced by RPMI without FBS and phenol red. […] Fluorescence was measured using a TECAN M1000 (Tecan Group Ltd., Männedorf, Switzerland) multimode microplate reader with excitation at 488 nm and emission at 507 nm. Each data point represents a ratio of two values, divided by the average fluorescence of six control wells. […] Antagonist affinity (Kb) was estimated from functional inhibition curves using the Gaddum (Schild) equation assuming competitive antagonism at human B1R: Kb = [B]/(dose-ratio–1), where [B] is the antagonist concentration, and the dose ratio is EC50 + Compound/EC50.
In general terms: In a reporter assay the amount or activity of a reporter protein is the signal.

The conditions of data set [3]: mouse, in vivo, iv. The protocol:
To perform ex vivo biodistribution studies, radiolabeled peptides (5–10 MBq; 100 μL) were administered to isoflurane-anaesthetized normal male Balb/c mice through caudal vein injection. Organs were collected 1 h and 4 h post-injections from CO2 inhalation-euthanized animals and were washed, weighted, and radioactivity measured in a gamma counter (Cobra II auto-gamma counter, Packard). The percentage of injected dose per gram of tissue (%ID/g) was then calculated, accounting for decay correction, using external ^64Cu standards. Biodistribution of the radiolabeled peptides was also performed in PCa tumor-bearing nude mice using micro-PET imaging performed on a 7.5 cm axial and 10 cm transaxial field of view LabPET8 small-animal scanner (Gamma Medica-IDEAS Inc., Northridge, CA, USA) in combination with X-ray computer tomography (CT) (MILabs U-CT system, Utrecht, The Netherlands). For this, radiolabeled peptides (6–9 MBq in 200 μL) were delivered by tail-vein injection to isoflurane-anaesthetized mice. PET scans composed of 30 min static acquisition were acquired at 1 h and 20 h after injection. […] To quantify the tumor uptake of the radiotracer, a volume of interest (VOI) was drawn around the center of the tumor. The uptake was determined as the means of the VOI voxels having intensity in the upper quartile.

A further data set relates to PC3 xenografts. Kind of data set: Peptide receptor radionuclide therapy (PRRT) in PC3 xenograft-bearing mice. The data set is classed as in vivo, mouse. As to conditions: nude mice with s.c. PC3 xenografts, single IV dose 50 µg/kg; 65 MBq. The protocol: Male Nu/Nu nude mice (Crl:NU-Foxn1nu: 4–6 weeks old, Charles River Laboratories, Inc., Wilmington, MA, USA) were subcutaneously (s.c.) inoculated into one or both lower flanks with PCa cells. LNCap cells (10 x 10^6) and PC3 cells (2.5 × 10^6) were suspended in 0.2 mL of a 1:1 (v/v) mixture of antibiotic-free DMEM medium and Matrigel (#356234, Sigma-Aldrich) for injection. Within 10–21 days post-inoculation, solid palpable prostate tumors had developed, and the animals were used for biodistribution, PET imaging, and radiotherapy studies. […]
Therapeutic efficacies of agents were investigated in PC3 xenograft-bearing mice. […] Tumor growth was monitored with a digital vernier caliper using the following formula: length × width^2. The weight of the mice was monitored throughout the study. […] Tumor growth was normalized by calculating the ratio of the tumor volume at each time point to the initial tumor volume measured prior to treatment. […]. […]
Retrieved subcutaneous tumors (5 μm thick sections) were evaluated by H&E and semiquantitative IHC staining of B1R, Ki67 (proliferation), cleaved caspase 3 (apoptosis), CD34 (angiogenesis), and LYVE-1 (lymphangiogenesis). […] Positive Ki67 staining was determined by the nucleus count (Ki-67+ cells/total cells) in sampled fields. […]

Where [4] appears, read: binding affinity, read-out: HEK293 IC50 (Table S1).
[5] abbreviates: binding affinity of agonists, read-out: HEK293 IC50 (Table S2).

For the molecule `CC[C@H](C)[C@H](NC(=O)[C@@H](Cc1ccc2ccccc2c1)NC(=O)[C@H](CO)NC(=O)[C@](C)(Cc1ccccc1)NC(=O)CNC(=O)[C@@H]1CCCN1C(=O)[C@@H]1C[C@@H]2CCCC[C@@H]2N1C(=O)[C@H](CCCNC(=N)N)NC(=O)[C@H](CCCN)NC(=O)CN1CCN(CC(=O)O)CCN(CC(=O)O)CC1)C(=O)O` (natCu complex, metal not drawn) [MAB7090], the IC50 on hB1R [1] (setting [4]) is 13 nM; at hB1R [2], 9.8 nM and 10 nM.

As to `N=C(N)NCCC[C@H](NC(=O)[C@H](CCCCN)NC(=O)CCNC(=O)CN1CCN(CC(=O)O)CCN(CC(=O)O)CC1)C(=O)N1CCC[C@H]1C(=O)N1CCC[C@H]1C(=O)NCC(=O)N[C@@H](Cc1ccccc1)C(=O)N[C@@H](CO)C(=O)N1CCC[C@H]1C(=O)N[C@H](Cc1ccccc1)C(=O)O` [MAB2047], the half-inhibitory concentration (IC50) on hB1R [1] (setting [5]) came out at 2.3 nM. Besides, the half-maximal effective concentration (EC50) at hB1R [2] stood at 2.2 nM.

Turning to `CC[C@H](C)[C@H](NC(=O)[C@@H](Cc1ccc2ccccc2c1)NC(=O)[C@H](CO)NC(=O)[C@](C)(Cc1ccccc1)NC(=O)CNC(=O)[C@@H]1CCCN1C(=O)C1CC2CCCCC2N1C(=O)[C@H](CCCNC(=N)N)NC(=O)[C@H](CCCN)NC(=O)CN1CCN(CC(=O)O)CCN(CC(=O)O)CC1)C(=O)O` (stereo partly shown) [MAB7020], the IC50 at hB1R [1] (setting [4]) amounted to 5 nM; at hB1R [2], 0.4 nM.

As to `CNCC(=O)N[C@@H](CCCCNC(=O)CN1CCN(CC(=O)O)CCN(CC(=O)O)CC1)C(=O)N[C@@H](CCCNC(=N)N)C(=O)N1CCC[C@H]1C(=O)N1CCC[C@H]1C(=O)NCC(=O)N[C@@H](Cc1ccccc1)C(=O)N[C@@H](CO)C(=O)N1CCC[C@H]1C(=O)N[C@H](Cc1ccccc1)C(=O)O` [MAB8066], the IC50 on hB1R [1] (setting [5]) was 40 nM. Moreover, the EC50 at hB1R [2] is 41 nM.

Consider `CC[C@H](C)[C@H](NC(=O)[C@@H](Cc1ccc2ccccc2c1)NC(=O)[C@H](CO)NC(=O)[C@](C)(Cc1ccccc1)NC(=O)CNC(=O)[C@@H]1CCCN1C(=O)[C@@H]1C[C@@H]2CCCC[C@@H]2N1C(=O)[C@H](CCCNC(=N)N)NC(=O)[C@H](CCCN)NC(=O)CCNC(=O)CN1CCN(CC(=O)O)CCN(CC(=O)O)CC1)C(=O)O` [^64Cu/NOTA-βAla-R954, metal not drawn] ({NOTA-βAla}-[Orn]R[Oic]PG[αMeF]S[d2Nal]I-OH), for which, in data set [3], the “clearance from the bloodstream” value was “rapid clearance”. The “observable toxicity (body weight)” value in the data set on PC3 xenografts is “did not induce any observable toxicity”.

The IC50 is the concentration at which inhibition is half-maximal. The EC50 is the concentration giving half of the maximal effect.
